# Laboratory results: publication PMC11609934, “Exploration and characterization of the antimalarial activity of cyclopropyl carboxamides that target the mitochondrial protein, cytochrome b” (European Journal of Medicinal Chemistry, 2024)
# Columns and labels:
# male gamete = assay: Dual gamete formation assay, male gametes; format: cell-based; settings: Plasmodium falciparum; NF54 parasites in a DGFA, 4 replicates
# Experimental: (§1) To determine whether the cyclopropyl carboxamide class has transmission blocking potential we profiled selected analogs in a dual gamete formation assay. In this assay, stage V gametocytes are treated with compound, and gametogenesis is induced by the addition of xanthurenic acid. Male gamete viability is determined by an imaging algorithm measuring motile flagellation, while female viability is measured using an antibody to the female-specific Pfs25 surface marker. […] Collectively, the activity observed against male gametes is consistent with activity observed with other cyt b inhibitors.
# (§2) Dual Gamete Formation Assay. Compounds were evaluated as previously described as a platform run at both Imperial College London and the London School of Hygiene and Tropical Medicine. Briefly, mature stage V gametocytes were exposed to compounds for 48 h at 37 °C in 384 well plates in gametocyte culture medium (RPMI 1640 supplemented with 25 mM HEPES, 50 μg/mL hypoxanthine, 4.8 g/L NaHCO3, 2 mM L-glutamine, 5 % pooled type AB serum, 0.5 % Albumax II (Gibco)) under a 1 % O2/3 % CO2/96 % N2 environment. Gametogenesis was then triggered by the addition of 10 μL ookinete medium (gametocyte culture medium supplemented with 100 μM xanthurenic acid and 0.27 μg/mL Cy3-labelled anti-Pfs25 antibody) to each well at room temperature. Plates were then cooled on a metal block at 4 °C for 4 min to ensure even cooling and then stabilized for a further 4 min at 28 °C. At 20 min post-induction, male gametogenesis was recorded in each well by automated brightfield microscopy using a × 4 objective lens and 1.5 × magnifier ( × 6 effective magnification). Afterward, plates were incubated in the dark at room temperature for 24 h and then female gametogenesis recorded in each well by automated fluorescence microscopy (anti-Pfs25-positive cells). […] All data was evaluated in comparison to the positive and negative controls to calculate percentage inhibition of male and female gametocytes, and dose response analysis and EC50 calculation performed using GraphPad Prism.
# female gamete = assay: Dual gamete formation assay, female gametes; format: cell-based; settings: Plasmodium falciparum; NF54 parasites in a DGFA, 4 replicates
# Experimental: as §1, §2
compound,measurement,setting,value
O=C(NC1CC1)c1ccc(CN(Cc2ccc(Cl)cc2Cl)C2CC2)cc1 [W499 (2)],EC50,male gamete,760 nM
same,EC50,female gamete,> 25000 nM
